Publication PMC4999848 (Toxins, 2016)
“And” between values parts separate entries of the source, which are not always exact repeats. Identical values can stand only once.

Tests used:
[1] = Deacetylation of 3/15ADON by small intestine S9 fraction; type: in vitro ADME, human
Method: (§1) Stock solutions of DON, 3ADON and 15ADON at 2 mg/mL were prepared in absolute ethanol and stored at −20 °C. For deacetylation assay, 3- or 15ADON were incubated with cells, explants, bacteria or digestive enzymes after being diluted in PBS^++ at a final concentration of 100 μM. PBS^++ solution containing only ethanol (at 1.5% final concentration) or DON (at 100 μM) were used in parallel as negative and positive control, respectively. For cells and explants, deacetylation assay take place in 6-well plates, wells being filled with 2 mL of PBS^++ containing either ethanol, DON, 3- or 15ADON. For fecal bacteria and digestive enzyme assay, deacetylation assay was conducted in 2 mL Eppendorf tubes filled with 1.5 mL of PBS^++ containing either ethanol, DON, 3- or 15ADON. In vitro intestinal digestion by luminal enzymes was performed using porcine enzymes from Sigma-Aldrich and physiological conditions. Briefly, 3- or 15ADON were incubated with pepsin (at 1.6 mg/mL corresponding to 900 U/mL), trypsin (at 0.35 mg/mL corresponding to 6000 U/mL), pancreatic lipase (at 0.75 mg/mL corresponding to 18 U/mL) or pancreatin (at 1.23 mg/mL, lipase activity >10 U/mL, protease activity >100 U/mL, amylase activity >100 U/mL). Except for pepsin for which the digestion was conducted in HCl solution at 10 mM (pH 2.3), in vitro digestion was performed in PBS^++ (pH 7.4). Finally, deacetylation assay was also performed with commercial pooled S9 fractions from human liver, small intestine and kidneys as well as with pure recombinant human CES1 and CES2. S9 fractions and CES1/2 were used at 0.1 mg/mL and 5 μg/mL (corresponding to CES activity >20 U/mL), respectively. In all cases, aliquots of the reaction solution were collected immediately (i.e., “time zero” sample) or after the indicated time period at 37 °C and analyzed by HPLC. […] In all cases, the experiments were conducted in triplicate (n = 3).
(§2) Deacetylation was monitoring both in term of disappearance of 3- or 15ADON and formation of DON. Measurement of DON, 3ADON and 15ADON concentrations was performed by reversed-phase HPLC using Waters Alliance System equipped with a Waters 2690 XE separation module and a Waters 996 photodiode array detector (Waters, Saint Quentin Falavier, France). The separation was achieved by mean of a LiChroCart column (125 mm × 4 mm) packed with 5 μm RP-18 Purospher gel (Merck, Darmstadt, Germany) and equipped with a LiChroCart precolumn (4 mm × 4 mm) packed with the same material (Merck). The precolumn and column were placed in room temperature. The elution procedure was carried out at 0.7 mL·min^−1 by a methanol–water solvent, using the following conditions: 40% methanol during 2 min followed by an increase in methanol to 50% at 2.1 min. The detection wavelength was set at 237 nm allowing the best signal/baseline ratio for simultaneous detection of the three DON forms in the incubation mediums. Under these conditions, DON and 3/15ADON were clearly separated, the retention time being around 2.7 min and 5.7 min, for DON and 3/15ADON, respectively (Figure 9). Quantification was based on calibration with the corresponding standard using Millinium Software (Waters, Saint Quentin Falavier, France).

[2] = tested on: secreted digestive enzymes and fecal bacteria; assay: Deacetylation of 3/15ADON by secreted digestive enzymes and fecal bacteria (taken together); type: in vitro ADME; conditions: digestive enzymes plus fecal bacteria
Method: (§3) The whole procedure involving fecal bacteria (including the use of fecal bacteria for the deacetylation assay) was performed in an anaerobic cabinet (Coy Laboratory Products, Grass Lake, MI, USA). Human fecal bacteria were isolated from three volunteers (men) working in the department, 40–50 years of age. Stools were collected fresh in a sterile container and were immediately introduced into the anaerobic cabinet. Feces samples were taken by pushing a cut-off disposal 1 mL pipette tip into the inner part of the stools. Samples were then mechanically suspended in 9 mL of degassed PBS^++. Homogenates were allowed to decant for ten minutes to eliminate insoluble matter, and supernatants (1 mL aliquots) were transferred to sterile Eppendorf tubes and used for deacetylation assay.
Stock solutions of DON, 3ADON and 15ADON at 2 mg/mL were prepared in absolute ethanol and stored at −20 °C. For deacetylation assay, 3- or 15ADON were incubated with cells, explants, bacteria or digestive enzymes after being diluted in PBS^++ at a final concentration of 100 μM. PBS^++ solution containing only ethanol (at 1.5% final concentration) or DON (at 100 μM) were used in parallel as negative and positive control, respectively. […] In all cases, aliquots of the reaction solution were collected immediately (i.e., “time zero” sample) or after the indicated time period at 37 °C and analyzed by HPLC. […]

[3] = tested on: human fecal bacteria; assay: Deacetylation of 3/15ADON by human fecal bacteria; type: in vitro ADME; conditions: for Disappearance of 3/15ADON, specific activity: fecal bacteria, anaerobic, 37 °C, substrate 100 μM; for % of deacetylation: human fecal bacteria; for Contribution to total deacetylation activity: Bacteria: percentage of sum of specific activities (Figure 8)
Method: as §3, §1
as §2, with “min.” for “min. The detection wavelength was set at 237 nm allowing the best signal/baseline ratio for simultaneous detection of the three DON forms in the incubation mediums. Under these conditions, DON and 3/15ADON were clearly separated, the retention time being around 2.7 min and 5.7 min, for DON and 3/15ADON, respectively (Figure 9). Quantification was based on calibration with the corresponding standard using Millinium Software (Waters, Saint Quentin Falavier, France).”

[4] = tested on: colonic explant; assay: Deacetylation of 3/15ADON by human colonic explants; type: in vitro ADME; conditions: for Disappearance of 3/15ADON, specific activity: colonic explant, 37 °C, substrate 100 μM; for % of deacetylation: colonic explants, 6 h incubation, 100 μM; for Contribution to total deacetylation activity: Colon: percentage of sum of specific activities (Figure 8)
Description: Human tissue samples were obtained from patients undergoing surgery at the Hospital Nord of Marseille, unit of general and gastrointestinal surgery according to a collaborative “clinical transfer” project. The procedures were approved by the French ethic committee (CODECOH n° DC-2011-1319). Patients were from both genders (six men, three women), 31–74 years of age, all of European origin. All patients agree to use their tissues for research purposes. Samples were taken from macroscopically unaffected area as identified by the surgeon for intestinal samples or the pathologist for liver resections. Diagnoses leading to surgery were carcinoma for intestine or liver. After resection, the specimens were placed in ice-cold non-sterile Krebs solution implemented and transferred to the school of medicine on the same campus within 5 min, composition of the Krebs solution being previously described. The tissues were rinsed several times and maintained in oxygenated Krebs during 1 h for recovery before final dissection. Intestinal and hepatic resections were extensively washed and maintained in ice-cold culture media containing 1% streptomycin/penicillin solution and 50 μg/mL gentamycin. Tissues were cleaned from vascular vessels and conjunctive tissue using forceps under binocular microscope. In case of intestinal resection, muscularis and plexus were removed and only epithelial layer was kept. Intestinal and hepatic explants (wet weight of 20–30 mg) were then isolated from the cleaned resections using surgical punch (diameter of […]). […] Finally, the explants were washed 3 times with PBS^++ and transferred into 6-well plates before being used for deacetylation assay.
as §1

[5] = tested on: pepsin and pancreatic enzymes (pancreatin, trypsin, lipase); assay: Deacetylation of 3/15ADON by luminal digestive enzymes (taken together); type: in vitro ADME, porcine; conditions: percentage of sum of specific activities (Figure 8)
Method: Stock solutions of DON, 3ADON and 15ADON at 2 mg/mL were prepared in absolute ethanol and stored at −20 °C. For deacetylation assay, 3- or 15ADON were incubated with cells, explants, bacteria or digestive enzymes after being diluted in PBS^++ at a final concentration of 100 μM. PBS^++ solution containing only ethanol (at 1.5% final concentration) or DON (at 100 μM) were used in parallel as negative and positive control, respectively. For cells and explants, deacetylation assay take place in 6-well plates, wells being filled with 2 mL of PBS^++ containing either ethanol, DON, 3- or 15ADON. For fecal bacteria and digestive enzyme assay, deacetylation assay was conducted in 2 mL Eppendorf tubes filled with 1.5 mL of PBS^++ containing either ethanol, DON, 3- or 15ADON. In vitro intestinal digestion by luminal enzymes was performed using porcine enzymes from Sigma-Aldrich and physiological conditions. […] In all cases, aliquots of the reaction solution were collected immediately (i.e., “time zero” sample) or after the indicated time period at 37 °C and analyzed by HPLC. […]
Deacetylation was monitoring both in term of disappearance of 3- or 15ADON and formation of DON. […] Quantification was based on calibration with the corresponding standard using Millinium Software (Waters, Saint Quentin Falavier, France).

[6] = S9 Intestine + Benzil 100 μM (Table 1)
[7] = S9 small intestine 0.1 mg/mL, 37 °C, substrate 100 μM (Table 3)

SMILES | Disappearance of 3/15ADON, specific activity [1, 6] | Disappearance of 3/15ADON, specific activity ([1]; S9 Intestine, without benzil (Table 1)) | Disappearance of 3/15ADON, specific activity [1, 7] | Contribution to total deacetylation: intestinal luminal events [2] | Disappearance of 3/15ADON, specific activity [3] | % of deacetylation ([3]; 6 h incubation, 100 μM) | % of deacetylation ([3]; 48 h incubation) | Contribution to total deacetylation activity: Bacteria [3] | Disappearance of 3/15ADON, specific activity [4] | % of deacetylation [4] | Contribution to total deacetylation activity: Colon [4] | Contribution to total deacetylation activity: Pancreatic enzymes [5]
CC(=O)O[C@@H]1C[C@]2(C)[C@@]3(CO)[C@H](O)C(=O)C(C)=C[C@H]3O[C@H]1[C@@]21CO1 [3ADON, 3-acetyldeoxynivalenol] | 875 ± 83 pmol/min/mg | 1166 ± 110 pmol/min/mg | 1250 pmol/min/mg and 1250 ± 79 pmol/min/mg | 16% | 34 ± 0.9 pmol/min/mg | 22.6% ± 15.9% | 82.1% ± 21.9% | 2.6% | 22 ± 13 pmol/min/mg | 4.2% ± 3.1% | 1.7% | 10%
CC(=O)OC[C@]12[C@H](O)C(=O)C(C)=C[C@H]1O[C@@H]1[C@H](O)C[C@@]2(C)[C@]12CO2 [15ADON, 15-acetyldeoxynivalenol] | 171 ± 79 pmol/min/mg | – | 166 pmol/min/mg and 166 ± 20 pmol/min/mg | 34% | 5.8 ± 1.3 pmol/min/mg | no activity | 14.9% ± 3.2% | 0.9% | 4.5 pmol/min/mg and 4.5 ± 5.6 pmol/min/mg | 0.2% ± 1.2% | 0.7% | 26%
